The term EC50 denotes the concentration that produces a half-maximal response.

Where a SMILES comes first, the peptide text is derived from it. Bridges are numbered along the chain shown (N, C = ends). [ ]: non-standard residue; d: D form.

One test concerns the target T1, NPR-B (Homo sapiens, UniProt P20594).
T1 construct: a functional assay using endogenously NPR-B expressing GTM-3 cells; endogenous in cells; host or cells: GTM-3 (transformed human trabecular meshwork cells)
T1 sequence (P20594 23-1047): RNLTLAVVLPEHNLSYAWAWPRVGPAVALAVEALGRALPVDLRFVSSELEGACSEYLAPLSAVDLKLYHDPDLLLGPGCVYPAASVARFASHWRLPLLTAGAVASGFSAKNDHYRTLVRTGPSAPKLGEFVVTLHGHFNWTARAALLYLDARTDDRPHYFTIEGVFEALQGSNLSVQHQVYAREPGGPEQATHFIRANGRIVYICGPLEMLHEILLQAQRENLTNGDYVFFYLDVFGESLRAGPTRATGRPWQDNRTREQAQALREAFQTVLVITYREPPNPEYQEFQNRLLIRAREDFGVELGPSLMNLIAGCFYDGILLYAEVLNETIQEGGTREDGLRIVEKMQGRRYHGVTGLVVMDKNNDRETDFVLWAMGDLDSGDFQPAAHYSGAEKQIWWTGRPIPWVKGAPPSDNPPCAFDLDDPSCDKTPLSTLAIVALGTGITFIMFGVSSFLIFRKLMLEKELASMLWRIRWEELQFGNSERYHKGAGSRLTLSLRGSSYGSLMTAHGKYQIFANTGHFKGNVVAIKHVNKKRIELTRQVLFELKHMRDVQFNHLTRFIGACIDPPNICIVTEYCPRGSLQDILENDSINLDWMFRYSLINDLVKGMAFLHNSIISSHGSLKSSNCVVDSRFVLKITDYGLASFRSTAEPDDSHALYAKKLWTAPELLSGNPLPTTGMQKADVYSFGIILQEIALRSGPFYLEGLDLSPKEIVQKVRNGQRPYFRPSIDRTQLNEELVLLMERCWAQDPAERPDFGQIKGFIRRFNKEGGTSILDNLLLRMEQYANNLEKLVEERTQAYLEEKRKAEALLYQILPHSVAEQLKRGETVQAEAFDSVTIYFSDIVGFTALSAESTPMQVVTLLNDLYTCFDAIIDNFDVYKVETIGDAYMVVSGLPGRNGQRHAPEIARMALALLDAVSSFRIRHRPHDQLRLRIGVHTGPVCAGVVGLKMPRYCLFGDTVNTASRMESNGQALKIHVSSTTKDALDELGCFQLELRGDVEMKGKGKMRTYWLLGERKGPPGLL
The test is described as follows: NPR-B induced production of cyclic GMP in GTM-3 cells. The test is classed as cell-based. To be noted: Activity (group): NPR-B activation, EC50 and Emax (CNP = 100%), GTM-3 cells; group needs both EC50 and Emax criteria, checked A then B then C. The method, then:
The efficacy and potency of compounds to activate NPR-B were evaluated in a functional assay using endogenously NPR-B expressing GTM-3 cells (Pang et al. 1994, Curr Eye Res 13:51-63). In this assay the dose dependent production of cyclic GMP (cGMP) is determined and Emax (maximum activation) and EC50 values are calculated.
The cell culture medium is aspirated and each well is washed with 200 μl DMEM/Ham's F12=Medium (Gibco). Then, 200 μl Medium supplemented with 1 mM IBMX (3-Isobutyl-1-methyl-xanthin, Sigma) is added to each well and incubated for 15 min. at room temperature.
Final compound concentrations are in the range from 45 μM to 20 nM.
In the case of `CC[C@H](C)[C@@H]1NC(=O)[C@H](CCCNC(=N)N)NC(=O)[C@H](CC(=O)O)NC(=O)[C@H](CC(C)C)NC(=O)[C@@H]2CCCN2C(=O)[C@H](CC(C)C)NC(=O)CNC(=O)[C@H](Cc2ccccc2)NC(=O)[C@@H](Cc2c[nH]cn2)NC(=O)[C@@H](NC(=O)[C@@H](N)CCSC)CSSC[C@@H](C(N)=O)NC(=O)[C@H](CO)NC1=O` [compound 41] (H-MC[dH]FGLPLDRISC-NH2; disulfide 2-13), the EC50 was < 5 µM.

The same test, now with this note: GTM-3 cells; group needs both EC50 and Emax criteria, checked A then B then C; read-out: Activity (group): NPR-B activation, EC50 and Emax (CNP = 100%).
Turning to `CC[C@H](C)[C@@H]1NC(=O)[C@H](CCCNC(=N)N)NC(=O)[C@H](CC(=O)O)NC(=O)[C@H](CC(C)C)NC(=O)[C@H](CCCCN)NC(=O)[C@H](CC(C)C)NC(=O)CNC(=O)[C@H](Cc2ccccc2)NC(=O)[C@H](Cc2c[nH]cn2)NC(=O)[C@@H](NC(=O)[C@@H](N)CCSC)CSSC[C@@H](C(=O)N[C@@H](CC(C)C)C(=O)N[C@@H](CCCNC(=N)N)C(N)=O)NC(=O)[C@H](CO)NC1=O` [compound 23] (H-MCHFGLKLDRISCLR-NH2; disulfide 2-13), the half-maximal effective concentration (EC50) was < 5 µM.

In the case of `CC[C@H](C)[C@@H]1NC(=O)[C@H](CCCNC(=N)N)NC(=O)[C@H](CC(=O)O)NC(=O)[C@H](CC(C)C)NC(=O)[C@H](CCCCN)NC(=O)[C@H](CC(C)C)NC(=O)CNC(=O)[C@H](Cc2ccccc2)NC(=O)[C@H](Cc2c[nH]cn2)NC(=O)[C@@H](NC(=O)[C@@H](N)CCSC)CSSC[C@@H](C(=O)N[C@@H](CO)C(=O)N[C@@H](CCCNC(=N)N)C(N)=O)NC(=O)[C@H](CO)NC1=O` [compound 24] (H-MCHFGLKLDRISCSR-NH2; disulfide 2-13), the EC50 was < 5 µM.

For the compound `CC[C@H](C)[C@@H]1NC(=O)[C@H](CCCNC(=N)N)NC(=O)[C@H](CC(=O)O)NC(=O)[C@H](CC(C)C)NC(=O)[C@H](CCCCN)NC(=O)[C@H](CC(C)C)NC(=O)CNC(=O)[C@H](Cc2ccccc2)NC(=O)[C@H](Cc2c[nH]cn2)NC(=O)[C@@H](NC(=O)[C@@H](N)CCSC)CSSC[C@@H](C(=O)N[C@@H](Cc2c[nH]cn2)C(=O)N[C@@H](CCCNC(=N)N)C(N)=O)NC(=O)[C@H](CO)NC1=O` [compound 25] (H-MCHFGLKLDRISCHR-NH2; disulfide 2-13), the concentration giving a half-maximal response (EC50) was < 15 µM.

Regarding `CC[C@H](C)[C@@H]1NC(=O)[C@H](CCCNC(=N)N)NC(=O)[C@H](CC(=O)O)NC(=O)[C@H](CC(C)C)NC(=O)[C@H](CCCCN)NC(=O)[C@H](CC(C)C)NC(=O)CNC(=O)[C@H](Cc2ccccc2)NC(=O)[C@H](Cc2c[nH]cn2)NC(=O)[C@@H](NC(=O)[C@@H](N)CCSC)CSSC[C@@H](C(=O)N[C@@H](Cc2ccc(O)cc2)C(=O)N[C@@H](CO)C(N)=O)NC(=O)[C@H](CO)NC1=O` [compound 26] (H-MCHFGLKLDRISCYS-NH2; disulfide 2-13), the EC50 was < 15 µM.

As for `CC[C@H](C)[C@@H]1NC(=O)[C@H](CCCNC(=N)N)NC(=O)[C@H](CC(=O)O)NC(=O)[C@H](CC(C)C)NC(=O)[C@H](CCCCN)NC(=O)[C@H](CC(C)C)NC(=O)CNC(=O)[C@H](Cc2ccccc2)NC(=O)[C@H](Cc2c[nH]cn2)NC(=O)[C@@H](NC(=O)[C@@H](N)CCSC)CSSC[C@@H](C(=O)N[C@@H](Cc2ccc(O)cc2)C(=O)N[C@@H](CC(N)=O)C(N)=O)NC(=O)[C@H](CO)NC1=O` [compound 27] (H-MCHFGLKLDRISCYN-NH2; disulfide 2-13), the EC50 was < 5 µM.

Take `CC[C@H](C)[C@@H]1NC(=O)[C@H](CCCNC(=N)N)NC(=O)[C@H](CC(=O)O)NC(=O)[C@H](CC(C)C)NC(=O)[C@H](CCCCN)NC(=O)[C@H](CC(C)C)NC(=O)CNC(=O)[C@H](Cc2ccccc2)NC(=O)[C@H](Cc2c[nH]cn2)NC(=O)[C@@H](NC(=O)[C@@H](N)CCSC)CSSC[C@@H](C(=O)N[C@@H](Cc2ccc(O)cc2)C(=O)N[C@@H](Cc2c[nH]cn2)C(N)=O)NC(=O)[C@H](CO)NC1=O` [compound 28] (H-MCHFGLKLDRISCYH-NH2; disulfide 2-13): the EC50 was < 5 µM.

For the compound `CC[C@H](C)[C@@H]1NC(=O)[C@H](CCCNC(=N)N)NC(=O)[C@H](CC(=O)O)NC(=O)[C@H](CC(C)C)NC(=O)[C@H](CCCCN)NC(=O)[C@H](CC(C)C)NC(=O)CNC(=O)[C@H](Cc2ccc(Cl)cc2)NC(=O)[C@H](Cc2c[nH]cn2)NC(=O)[C@@H](NC(=O)[C@@H](N)CCSC)CSSC[C@@H](C(N)=O)NC(=O)[C@H](CO)NC1=O` [compound 29], the EC50 is < 15 µM.

Take `CC[C@H](C)[C@@H]1NC(=O)[C@H](CCCNC(=N)N)NC(=O)[C@H](CC(=O)O)NC(=O)[C@H](CC(C)C)NC(=O)[C@H](CCCCN)NC(=O)[C@H](CC(C)C)NC(=O)CNC(=O)[C@H](Cc2ccccc2)NC(=O)CCCNC(=O)[C@@H](NC(=O)[C@@H](N)CCSC)CSSC[C@@H](C(N)=O)NC(=O)[C@H](CO)NC1=O` [compound 32]: the EC50 was < 15 µM.

Consider `CC[C@H](C)[C@@H]1NC(=O)[C@H](CCCNC(=N)N)NC(=O)[C@H](CC(=O)O)NC(=O)[C@H](CC(C)C)NC(=O)[C@H](CCCCN)NC(=O)[C@H](CC(C)C)NC(=O)[C@@H](C)NC(=O)[C@H](Cc2ccccc2)NC(=O)CNC(=O)[C@@H](NC(=O)[C@@H](N)CCSC)CSSC[C@@H](C(N)=O)NC(=O)[C@H](CO)NC1=O` [compound 34] (H-MCGF[dA]LKLDRISC-NH2; disulfide 2-13), for which the half-maximal effective concentration (EC50) is < 5 µM.

As for `CC[C@H](C)[C@@H]1NC(=O)[C@H](CCCNC(=N)N)NC(=O)[C@H](CC(=O)O)NC(=O)[C@H](CC(C)C)NC(=O)[C@H](CCCCN)NC(=O)[C@H](CC(C)C)NC(=O)[C@@H](C)NC(=O)[C@H](Cc2ccccc2)NC(=O)[C@@H](Cc2c[nH]cn2)NC(=O)[C@@H](NC(=O)[C@@H](N)CCSC)CSSC[C@@H](C(N)=O)NC(=O)[C@H](CO)NC1=O` [compound 35], the EC50 is < 5 µM.

As for `CC[C@H](C)[C@@H]1NC(=O)[C@H](CCCNC(=N)N)NC(=O)[C@H](CC(=O)O)NC(=O)[C@H](CC(C)C)NC(=O)[C@H](CCCCN)NC(=O)[C@H](CC(C)C)NC(=O)CNC(=O)[C@H](Cc2ccccc2)NC(=O)[C@H]2CCCN2C(=O)[C@@H](NC(=O)[C@@H](N)CCSC)CSSC[C@@H](C(N)=O)NC(=O)[C@H](CO)NC1=O` [compound 37], the EC50 was < 5 µM.

For `CC[C@H](C)[C@@H]1NC(=O)[C@H](CCCNC(=N)N)NC(=O)[C@H](CC(=O)O)NC(=O)[C@H](CC(C)C)NC(=O)[C@H](CCCCN)NC(=O)[C@H](CC(C)C)NC(=O)CNC(=O)[C@H](Cc2ccccc2)NC(=O)[C@@H](C)NC(=O)[C@@H](NC(=O)[C@@H](N)CCSC)CSSC[C@@H](C(N)=O)NC(=O)[C@H](CO)NC1=O` [compound 38], the EC50 is < 5 µM.

Consider `CC[C@H](C)[C@@H]1NC(=O)[C@H](CCCNC(=N)N)NC(=O)[C@H](CC(=O)O)NC(=O)[C@H](CC(C)C)NC(=O)[C@H](CCCCN)NC(=O)[C@H](CC(C)C)NC(=O)CNC(=O)[C@H](Cc2ccccc2)NC(=O)[C@@H](CO)NC(=O)[C@@H](NC(=O)[C@@H](N)CCSC)CSSC[C@@H](C(N)=O)NC(=O)[C@H](CO)NC1=O` [compound 39], for which the EC50 was < 5 µM.

Consider `CC[C@H](C)[C@@H]1NC(=O)[C@H](CCCNC(=N)N)NC(=O)[C@H](CC(=O)O)NC(=O)[C@H](CC(C)C)NC(=O)[C@H](CCCCN)NC(=O)[C@H](CC(C)C)NC(=O)CNC(=O)[C@H](Cc2ccccc2)NC(=O)[C@@H](CC(N)=O)NC(=O)[C@@H](NC(=O)[C@@H](N)CCSC)CSSC[C@@H](C(N)=O)NC(=O)[C@H](CO)NC1=O` [compound 40], for which the EC50 was < 5 µM.

Regarding `CC[C@H](C)[C@@H]1NC(=O)[C@H](CCCNC(=N)N)NC(=O)[C@H](CC(=O)O)NC(=O)[C@H](CC(C)C)NC(=O)[C@H](CCCNC(=N)N)NC(=O)[C@H](CC(C)C)NC(=O)CNC(=O)[C@H](Cc2ccccc2)NC(=O)[C@@H](Cc2c[nH]cn2)NC(=O)[C@@H](NC(=O)[C@@H](N)CCSC)CSSC[C@@H](C(N)=O)NC(=O)[C@H](CO)NC1=O` [compound 42] (H-MC[dH]FGLRLDRISC-NH2; disulfide 2-13), the EC50 is < 5 µM.
